Experimental data as given in paper PMC6017705, “Discovery of N-(Naphtho[1,2-b]Furan-5-Yl) Benzenesulfonamides as Novel Selective Inhibitors of Triple-Negative Breast Cancer (TNBC)” (Molecules : A Journal of Synthetic Chemistry and Natural …, 2018).

What was measured:
MCF-7 = assay: Cell viability assay (CCK-8), MCF-7; assay type: cell-based, human; settings: Homo sapiens; for inhibition at 5 µg/mL: MCF7; for IC50: MCF7, 72 h, non-TNBC breast cancer cell line, CCK-8, 72 h
Procedure: (§1) Four human TNBC cell lines (MDA-MB-231, MDA-MB-453, SUM-159, and BT-20), a non-TNBC breast cancer cell line (MCF-7) and a normal mammary epithelial cell line (MCF-10A) were cultured with DMEM (phenol free) supplemented with 2.5% CS-FBS and 1% L-Glu. 1.2 × 10^3 of cells were seeded into 384-well microplates and maintained for 24 h in an incubator at 37 °C in a 5% CO2, saturated humidified atmosphere. […] […] Then CCK-8 solution was added into cells and incubated for another 4 h. Absorbance was measured with a Microplate Reader at 450/600 nm. The IC50 values of the compounds on TNBC cell lines were derived using GraphPad Prism 5.0 (GraphPad Software, Inc., La Jolla, CA, USA).

SUM-159 = assay: Cell viability assay (CCK-8), SUM-159; assay type: cell-based, human; settings: Homo sapiens; for inhibition at 5 µg/mL: SUM159; for IC50: SUM159, 72 h, TNBC cell line, CCK-8, 72 h, 0.156 to 40 μM
Procedure: as §1

MDA-MB-231 = assay: Cell viability assay (CCK-8), MDA-MB-231; assay type: cell-based, human; settings: Homo sapiens; for inhibition at 5 µg/mL: MDA-MB-231; for IC50: MDA-MB-231, 72 h, TNBC cell line, CCK-8, 72 h, 0.156 to 40 μM
Procedure: as §1

MDA-MB-453 = assay: Cell viability assay (CCK-8), MDA-MB-453; assay type: cell-based; settings: Homo sapiens, TNBC cell line, CCK-8, 72 h, 0.156 to 40 μM
Procedure: (§2) Four human TNBC cell lines (MDA-MB-231, MDA-MB-453, SUM-159, and BT-20), a non-TNBC breast cancer cell line (MCF-7) and a normal mammary epithelial cell line (MCF-10A) were cultured with DMEM (phenol free) supplemented with 2.5% CS-FBS and 1% L-Glu. 1.2 × 10^3 of cells were seeded into 384-well microplates and maintained for 24 h in an incubator at 37 °C in a 5% CO2, saturated humidified atmosphere. Different compounds were added into cells with 9 concentrations from 0.156 to 40 μM for 72 h. […] Then CCK-8 solution was added into cells and incubated for another 4 h. Absorbance was measured with a Microplate Reader at 450/600 nm. The IC50 values of the compounds on TNBC cell lines were derived using GraphPad Prism 5.0 (GraphPad Software, Inc., La Jolla, CA, USA).

BT-20 = assay: Cell viability assay (CCK-8), BT-20; assay type: cell-based; settings: Homo sapiens, TNBC cell line, CCK-8, 72 h, 0.156 to 40 μM
Procedure: as §2

| IC50 (MCF-7) | IC50 (MDA-MB-453) | IC50 (MDA-MB-231) | IC50 (BT-20) | SMILES | inhibition at 5 µg/mL (MCF-7) | inhibition at 5 µg/mL (SUM-159) | inhibition at 5 µg/mL (MDA-MB-231) | IC50 (SUM-159) |
| --- | --- | --- | --- | --- | --- | --- | --- | --- |
| – | – | – | – | Cc1oc2c(cc(NS(=O)(=O)c3ccc(F)cc3)c3ccccc32)c1C(=O)OC(C)C [Compound 3-39] | 4.95% | -0.193% | 42.3% | – |
| – | – | – | – | COC(=O)c1c(C)oc2c1cc(NS(=O)(=O)c1cc(C)c(C)cc1C)c1ccccc12 [Compound 3-24] | 34.9% | 0.233% | 46.6% | – |
| 14 µM | 3.19 µM | 4.36 µM | 13.3 µM | CCc1ccc(S(=O)(=O)Nc2cc(SCC(=O)O)c(O)c3ccccc23)cc1 [Compound 2-1] | – | – | – | 30.8 µM |
| – | – | 10 µM | – | CCc1ccc(S(=O)(=O)Nc2cc3c(C(=O)OC)c(C)oc3c3ccccc23)cc1 [Compound 3-20] | 31.2% | 65.4% | 53.5% | 17 µM |
| – | – | – | – | CCOC(=O)c1c(C)oc2c1cc(NS(=O)(=O)c1ccc(C)cc1)c1ccccc12 [Compound 3-36] | -4.38% | -0.123% | 16.8% | – |
| – | – | – | – | COC(=O)c1c(C)oc2c1cc(NS(=O)(=O)c1ccc(C(C)C)cc1)c1ccccc12 [Compound 3-4] | 14.2% | -0.319% | 37.8% | – |
| – | – | – | – | COC(=O)c1c(C)oc2c1cc(NS(=O)(=O)c1ccc(C(=O)O)cc1)c1ccccc12 [Compound 3-34] | 2.85% | -0.042% | 11% | – |
| – | – | – | – | COC(=O)c1c(C)oc2c1cc(NS(=O)(=O)c1ccc(C)cc1)c1ccccc12 [Compound 3-14] | 10.2% | 48.2% | 62.8% | – |
| – | – | – | – | CCOC(=O)c1c(C)oc2c1cc(NS(=O)(=O)c1ccc(C(C)C)cc1)c1ccccc12 [Compound 3-31] | 2.95% | -1.33% | 32.1% | – |
| – | – | – | – | Cc1oc2c(cc(NS(=O)(=O)c3ccc(C(C)C)cc3)c3ccccc32)c1C(=O)O [Compound 3-32] | -7.57% | -0.964% | 24.7% | – |
| – | – | – | – | CCCCCOC(=O)c1c(C)oc2c1cc(NS(=O)(=O)c1ccc(OC)cc1)c1ccccc12 [Compound 3-25] | 48.3% | 61.9% | 39.5% | – |
| > 40 µM | 8.59 µM | 7.99 µM | > 40 µM | CC(=O)Oc1c(SCC(=O)O)cc(NS(=O)(=O)c2ccc(F)cc2)c2ccccc12 [Compound 2-3] | – | – | – | > 40 µM |
| – | – | – | – | CCOC(=O)c1c(C)oc2c1cc(NS(=O)(=O)c1ccc(C)cc1C)c1ccccc12 [Compound 3-16] | 43.4% | 0.732% | 48.2% | – |
| – | 2.3 µM | – | 10.6 µM | COc1ccc(S(=O)(=O)Nc2cc(SCC(=O)O)c(O)c3ccccc23)cc1 [Compound C10] | – | – | – | – |
| – | – | – | – | COC(=O)c1c(C)oc2c1cc(NS(=O)(=O)c1cccc3cccnc13)c1ccccc12 [Compound 3-27] | 35.5% | 10.2% | 48.2% | – |
| – | – | – | – | COC(=O)c1c(C)oc2c1cc(NS(=O)(=O)c1ccc(C)cc1C)c1ccccc12 [Compound 3-5] | 22% | 0.757% | 41.1% | – |
| – | – | – | – | CCOC(=O)c1c(C)oc2c1cc(NS(=O)(=O)c1ccc(C(=O)O)cc1)c1ccccc12 [Compound 3-13] | 5.14% | -0.635% | 19.6% | – |
| – | – | – | – | Cc1oc2c(cc(NS(=O)(=O)c3ccc(Cl)cc3)c3ccccc32)c1C(=O)O [Compound 3-1] | -12.2% | -0.754% | 31.4% | – |
| – | – | – | – | CCOC(=O)c1c(C)oc2c1cc(NS(=O)(=O)c1ccc3ccccc3c1)c1ccccc12 [Compound 3-6] | 7.72% | 0.292% | 43.4% | – |
| > 40 µM | 3.36 µM | 4.97 µM | 25 µM | Cc1ccc(S(=O)(=O)Nc2cc(SCC(=O)O)c(O)c3ccccc23)cc1 [Compound 2-6] | – | – | – | 19.2 µM |
| – | – | – | – | CCOc1ccc(S(=O)(=O)Nc2cc3c(C(=O)OCCOC)c(C)oc3c3ccccc23)cc1 [Compound 3-23] | 14.7% | 49.1% | 62% | – |
